Results from paper PMC5834492, “Antimycobacterial drug discovery using Mycobacteria-infected amoebae identifies anti-infectives and new molecular targets” (Scientific Reports, 2018).
Where two headings read alike, the source gives them in different places.

What was measured:
[1] = system: M. marinum in BV2 microglial cells; format: cell-based, Mycobacterium marinum; conditions: for BV2 / M. marinum normalised growth, control=1.00, mean / hit in BV2/M. marinum assay True/False: 10 µM
D. discoideum GFP-ABD = conditions: 10 µM
M. marinum luxCDABE = format: cell-based, Mycobacterium marinum; conditions: for M. marinum luxCDABE normalised growth, control=1.00, mean / M. marinum luxCDABE normalised growth, control = 1.00, mean: 10 µM
Mtb H37Rv = system: Mtb H37Rv; parameters: method as in Sorrentino et al, 2015; conditions: ref Sorrentino et al, 2015; cited from earlier work
Mtb H37Rv in THP-1 = system: Mtb H37Rv in THP-1; parameters: method as in Sorrentino et al, 2015; conditions: ref Sorrentino et al, 2015, cited from earlier work; for Extracellular MIC90/ Inracellular MIC90: ratio
M. marinum GFP = format: cell-based, Mycobacterium marinum; conditions: 10 µM; antibiotic assay
[2] = system: M. marinum in A. castellanii; format: cell-based, Mycobacterium marinum
[3] = THP1 / Mtb H37Rv infection assay

| SMILES | IC50 [1] [µM] | BV2 / M. marinum normalised growth, control=1.00, mean [1] | D. discoideum GFP-ABD normalised growth, control=1.00, mean (D. discoideum GFP-ABD) | M. marinum luxCDABE normalised growth, control=1.00, mean (M. marinum luxCDABE) | Extracellular MIC90 (Mtb H37Rv) [µM] | Intracelullar MIC90 in THP-1 (Mtb H37Rv in THP-1; [3]) [µM] | Extracellular MIC90/ Inracellular MIC90 (Mtb H37Rv in THP-1) | M. marinum GFP normalised growth, control=1.00, mean (M. marinum GFP) | A. castellanii / M. marinum normalised growth, control=1.00, mean ([2]; 10 µM) | hit in BV2/M. marinum assay True/False [1] | D. discoideum GFP-ABD normalised growth, control = 1.00, mean (D. discoideum GFP-ABD) | M. marinum luxCDABE normalised growth, control = 1.00, mean (M. marinum luxCDABE) | Intracelullar MIC90 in THP-1 (Mtb H37Rv in THP-1; Mtb H37Rv-infected THP1 cells) [µM] | A. castellanii/M. marinum normalised growth, control = 1.00, mean ([2]; 10 µM) | Hits A. castellanii/M. marinum assay True/False ([2]; 10 µM) | Antibiotic assays: M. marinum luxCDABE (M. marinum luxCDABE) | Intracellular infection assays: BV2 / M. marinum [1] | Intracellular infection assays: A. castellanii / M. marinum [2] |
| --- | --- | --- | --- | --- | --- | --- | --- | --- | --- | --- | --- | --- | --- | --- | --- | --- | --- | --- |
| CN1CCN(c2ccc(C(F)(F)F)cc2NC(=O)c2ccccn2)CC1 [GSK1750922A] | 5.07 | 0.94 | 0.29 | 1.00 | 1.9 | 50 | 0.04 | 0.91 | 0.93 |  |  |  |  |  |  |  |  |  |
| Br.CC1(C)NC(N)=NC(=N)N1OCCCOc1ccc(Cl)cc1Cl [BRL-51091AM] | 1.8 | 0.51 | 0.97 | 0.00 | 3.5 | 5.55 | 0.63 | 1.23 | 1.95 |  |  |  |  |  |  |  |  |  |
| CNc1nc(SCC(=O)N(C)Cc2ccc(Cl)s2)nc2ccccc12 [GSK1925843A] | 3.83 | 0.43 | 1.10 | 0.00 | 5.6 | 16.65 | 0.34 | 0.70 | 1.12 | TRUE | 1,10 | 0,00 | 16.65 | 1,12 | FALSE |  |  |  |
| Cc1ccc2[nH]c(C3CCCNC3)c(-c3ccncc3)c2c1 (centres unmarked) [GSK1905227A] | 9.76 | 0.77 | 0.85 | 0.08 |  |  |  | 0.55 | 1.23 |  |  |  |  |  |  |  |  |  |
| CCOc1ccc(-c2nc(CNCCc3ccc(F)cc3)cs2)cc1.O=C(O)C(=O)O [GSK1759150A] | 4.31 | 0.73 | 0.30 | 0.37 | 1.1 | 16.65 | 0.07 | 0.75 | 0.82 |  |  |  |  |  |  |  |  |  |
| COc1ccc2sc(Nc3nc(-c4ccccn4)cs3)nc2c1 [GSK690382A] | 11.9 | 0.85 | 1.25 | 0.00 |  |  |  | 0.98 | 1.07 |  |  |  |  |  |  |  |  |  |
| CSc1ccccc1C(=O)Nc1nc(-c2ccccn2)cs1 [GSK921190A] | 4.08 | 0.94 | 0.94 | 0.10 | 1.7 | 16.65 | 0.1 | 0.45 | 1.20 |  |  |  |  |  |  |  |  |  |
| Nc1nc(N)c2c(Sc3ccc4ccccc4c3)cccc2n1 [GW369335X] | 4.87 | 0.71 | 0.97 | 0.20 | 8.7 | 5.55 | 1.57 | 0.14 | 0.37 | FALSE |  |  | 5.55 |  | TRUE |  |  |  |
| COc1cc(C(F)(F)F)nc2ccc(C)c(N)c12 [GSK345724A] | 8.6 | 0.87 | 0.95 | 0.31 | 5.3 | 1.85 | 2.86 | 0.29 | 1.16 |  |  |  |  |  |  |  |  |  |
| COc1cc2ccccc2cc1C(=O)NCc1cccc(-c2ccccc2OC)c1 [GSK695914A] | 7.82 | 0.48 | 0.98 | 0.00 | 2.2 | 5.55 | 0.4 | 0.0549 | 0.63 | TRUE |  | 0,00 | 5.55 |  | FALSE |  |  |  |
| Clc1ccc(Nc2nc(-c3ccccn3)cs2)nc1 [GSK445886A] | 1.75 | 0.84 |  | 0.075 |  | >50 |  | 0.31 | 1.31 |  |  |  |  |  |  |  |  |  |
| COc1cc(CN2CCC3(C=Cc4ccccc43)CC2)cc2c1OCO2 [SB-354364] | 16.8 | 0.80 | 0.86 | 1.00 |  |  |  | 0.83 | 1.02 |  |  |  |  |  |  |  |  |  |
| CSc1ccc(-c2nnc(NC(=O)c3ccc(Cl)s3)o2)cc1 [GSK1650514A] | 19.7 | 0.90 | 1.16 | 0.00 |  | >50 |  | 0.91 | 1.31 |  |  |  |  |  |  |  |  |  |
| O=C(O)C(F)(F)F.c1ccc(C[C@H]2CN(c3nccc(Oc4ccc(-n5ccnc5)cc4)n3)CCN2)cc1 [GSK1519001A] |  | 0.74 | 0.76 | 0.18 |  |  |  | 0.97 | 1.14 |  |  |  |  |  |  |  |  |  |
| O=C(COc1cccc(F)c1)Nc1nc(-c2ccccn2)cs1 [GSK920684A] |  |  |  |  |  | 50 |  |  |  |  |  |  |  |  |  | 0.00 |  |  |
| N#Cc1ccc2c(c1)CCN(CCCSc1ccnc3cc(C(F)(F)F)ccc13)CC2 [GSK254610A] |  | 0.50 | 0.88 | 0.00 |  |  |  | 0.05 | 0.87 | TRUE |  | 0,00 |  |  | FALSE |  |  |  |
| CSc1ccc(C(=O)Nc2nc(-c3ccccn3)cs2)cc1 [GSK921295A] |  |  |  |  | 8.7 | 50 | 0.17 |  |  |  |  |  |  |  |  | 0.00 | 1.23 | 1.37 |
